We go through one compound from patent publication US20020091086A1, “Peptides that block viral infectivity and methods of use thereof” (priority 1999, published 2002).

For one data set, the system named is HIV-1Bru wild-type. The data set is described as follows: infectivity in MT-2 cells, p24 ELISA, wild-type. Type of data set: cell-based. The method, then:
(§1) Accordingly, the ability of GPG-NH2 to inhibit the infectivity of wild-type and V3-loop deletion mutants (GPG domain) in MT-2 cells was determined. In these experiments, approximately 200,000 MT-2 cells were infected with HIV-1Bru wild-type and GPG-deleted mutants mp8 and mp10 at 25 TCID50 to test the inhibitory effect of GPG-NH2 The MT-2 cells were resuspended in 1 ml of RPMT 1640 medium supplemented with 10% (v/v) heat-inactivated fetal bovine serum (FBS, GIBCO), penicillin (100μ/ml), streptomycin (100μ/ml) and Polybrene (Sigma 2 μg/ml) with or without the presence of GPG-NH2 at concentration 20 of μM and 100 μM. Thereafter, viruses were added at 25 TCID50 in a volume of 20-30 μl. Cells were incubated with virus at 37° C. for 16 hr then loosely pelleted by centrifugation at 170×g for 7 minutes. The cells were then washed three times in RPMI medium without peptides at room temperature by cell sedimentation at 170×g for 7 minutes as above. After the final wash, the cells were resuspended in RPMI culture medium in 24-well plate (Costar corporation) then kept at 37° C. in 5% CO2 with humidity. Culture supernatants were collected when medium was changed at day 4, 7, 11 and 14 post infection. To monitor the replication of virus, HIV-1 p24 antigen protein in the supernatants from day 7 and 14 was assayed by a ELISA kit (Abbott Laboratories) which has a linear dose-response range from 20 pg to 640 pg of p24 per ml and the p24 amount can be determined with aid of the regression line.
In general terms: In an ELISA, binding on a coated surface is turned into a signal by an enzyme label.

The subject of a further data set is GPG-deleted mutant mp8. Description: infectivity in MT-2 cells, p24 ELISA, GPG-deleted mutant mp8. Type of data set: cell-based, HIV-1. The method, then: as §1
A further data set has as its system HUT78 cells. The data set is described as follows: in vitro uptake of 14C-labelled GPG-NH2 into cells. Type of data set: in vitro ADME. The note with it: 165 nCi (0.7 μM). The method, then:
(§2) Additionally, the in vitro uptake of small peptides from the culture medium into the cells was studied in a series of experiments. Accordingly, HUT78, Jurkat-tat III, and MT-2 cells were incubated with ^14C-labelled GPG-NH2 165 nCi (equivalent to 0.7 μM of GPG-NH2). An uptake of the small peptide was observed and between 8% (Jurkat-tat III cells) and 20% (HUT78 cells) of the GPG-NH2 was incorporated in the cells.

Another data set has as its system Jurkat-tat III cells. Description: in vitro uptake of 14C-labelled GPG-NH2 into cells. The note with it: 165 nCi (0.7 μM). Type of data set: in vitro ADME. On the procedure:
as §2

Data set [1] is described as follows: 18 day intraperitoneal toxicity in mice. Type of data set: in vivo. Conditions: intraperitoneal 0.01, 0.1 and 1 g per kilo bodyweight and day, 18 days from age 6 days. On the procedure:
In this example, the results from several in vivo toxicology studies on small peptides administered in large doses to rodents are presented. In a first experiment, a large single dose of small peptide was delivered to mice and the toxic effects were analyzed. […] In a second experiment, several doses of varying amounts of a small peptide were delivered to mice for almost three weeks. Groups of mice (five mice in each group) were given intraperitoneal injections of GPG-NH2 (0.01, 0.1 and 1 g per kilo bodyweight and day, respectively) starting at an age of 6 days. Daily injections were continued for 18 days. […] In a similar experiment, a four week toxicology study of GPG-NH2 was performed by Scantox A/S in Denmark. GPG-NH2 was given orally to rats at doses up to 1 g per kilo bodyweight per day for twenty eight days.

A further data set has as its target T1, recombinant gp120 (Human immunodeficiency virus type 1 group M subtype B, UniProt P03375).
T1 construct: recombinant proteins p24 and gp120 (gifts from the AIDS program, NCIB); purchased AIDS program, NCIB (gift, not bought)
Description: dialysis-based binding assay with 14C-GPG-NH2, gp120. On the set-up: species or system HIV-1. Conditions: dialysis 2 days at 4° C. against 27.5 μM 14C-GPG-NH2; buffer 1.816. On the procedure: A dialysis-based binding assay was conducted using a dialysis membrane with a pore size of less than 10 kD. (Slide-A-Lyzer, Pierce). Fifty microliters of a 10 μM stock of the recombinant proteins p24 and gp120 (gifts from the AIDS program, NCIB) and BSA (Sigma) were introduced into separate dialysis membranes and the proteins were dialyzed at 4° C. for 2 days against a 500 ml solution composed of 150 mM NaCl and 50 mM Tris-HCl, pH 7.4 buffer and 27.5 μM of ^14C-GPG-NH2 (Amersham Ltd. UK). Subsequently, ten or five microliter aliquots of the dialyzed p24, gp120, and BSA were removed and mixed with 3 ml of ReadySafe (Beckman) in a scintillation vial. The C^14 was then detected by scintillation counting.

Data set [2] has as its system normal human lymphomonocytic cells (PBMC). Description: viability of cultured monocytes and lymphocytes. The note with it: as high as 2 mM; exposure as long as 4 days. Type of data set: cell-based. The method, then:
Next, the toxicity to normal human lymphomonocytic cells (PBMC) was examined. […] The effect of GPG-NH2 on in vitro proliferative response of human mononuclear cells was also tested.

In a further data set the test system is HIV-1 SF-2 virus. The data set is described as follows: electron microscopy of HIV-1 particles from infected HUT78 cells. Type of data set: cell-based. The note with it: 1 μM or 10 μM added 3, 5 or 7 days post infection; cells fixed day 14. On the procedure: In this set of experiments, HUT78 cells were infected with HIV-1 SF-2 virus at 300TCID50 for 1 hr at 37° C. Subsequently, the infected cells were washed and pelleted 3 times, as described in Example 2. Thereafter, the cells were resuspended in RPMI culture medium supplemented with 10% FBS, antibiotics (100 u/ml) and polybrene (3.2 μg/ml). GPG-NH2 was then added into the cell cultures 3, 5 or 7 days post infection at concentration of 1 μM or 10 μM. A control sample was administered 0.5μM Ritonavir (a protease inhibitor).
The cells were cultured until day 14, at which point, the cells were fixed in 2.5% glutaraldehyde by conventional means. The fixed cells were then postfixed in 1% OSO4 and were dehydrated, embedded with epoxy resins, and the blocks were allowed to polymerize. Epon sections of virus infected cells were made approximately 60-80 nm thin in order to accommodate the width of the nucleocapsid. The sections were mounted to grids stained with 1.0% uranyl acetate and were analyzed in a Zeiss CEM 902 microscope at an accelerating voltage of 80 kV. The microscope was equipped with a spectrometer to improve image quality and a liquid nitrogen cooling trap was used to reduce beam damage. The grids having sections of control and GPG-NH2 incubated cells were examined in several blind studies.

Peptide text beside a SMILES is read from it.

As for `NCC(=O)N1CCC[C@H]1C(=O)NCC(N)=O` [GPG-NH2, glycyl-prolyl-glycine amide] (H-Gly-Pro-Gly-NH2), the p24 in the data set with HIV-1Bru wild-type (GPG 20 μM, Day 7, WT) came out at 23900 pg/mL; with HIV-1Bru wild-type (GPG 20 μM, Day 14, WT), 223000 pg/mL; with HIV-1Bru wild-type (GPG 100 μM, Day 7, WT), 3390 pg/mL; in the data set on HIV-1Bru wild-type (GPG 100 μM, Day 14, WT), 181000 pg/mL; in the data set on GPG-deleted mutant mp8 (GPG 20 μM, Day 7) it was 2420 pg/mL; with GPG-deleted mutant mp8 (GPG 20 μM, Day 14) it was 69100 pg/mL. In addition, the p24 with GPG-deleted mutant mp8 (GPG 100 μM, Day 7) stood at 208 pg/mL; in the data set with GPG-deleted mutant mp8 (GPG 100 μM, Day 14) it was 7410 pg/mL. Also, the reduction (%) in the data set on HIV-1Bru wild-type (GPG 20 μM, Day 7, WT) turned out to be 29%; with HIV-1Bru wild-type (GPG 20 μM, Day 14, WT), 38%; in the data set on HIV-1Bru wild-type (GPG 100 μM, Day 7, WT) it was 90%; with HIV-1Bru wild-type (GPG 100 μM, Day 14, WT), 49%; with GPG-deleted mutant mp8 (GPG 20 μM, Day 7), 24%; in the data set with GPG-deleted mutant mp8 (GPG 20 μM, Day 14), 53%. The reduction (%) with GPG-deleted mutant mp8 (GPG 100 μM, Day 7) amounted to 93%; with GPG-deleted mutant mp8 (GPG 100 μM, Day 14), 95%. For the same compound, the “GPG-NH2 incorporated in the cells” value with HUT78 cells is on record as 20%; with Jurkat-tat III cells, 8%. The “influence on the mice compared to controls” value in data set [1] is “no significant influence”. Also, the “radioactive GPG-NH2 associated with gp120” value at recombinant gp120 amounted to 1.745 μCi/ml. Moreover, in data set [2], the “viability of cultured monocytes and lymphocytes” value is reported as “did not appreciably affect the viability”. The “viral nucleocapsid formation, electron microscopy” value in the data set with HIV-1 SF-2 virus is recorded as “interrupted proper viral nucleocapsid formation”.
